One test has as its system GPR22 mRNA. Put plainly: GPR22 mRNA expression in NHEK cells, real-time PCR (Example 4). It is filed as cell-based, human. The following applies: Compound 1 1 μM, 3 days. On the procedure: In this example, the expression-inducing effects of Compound 1 on GPR142 mRNA and GPR22 mRNA in NHEK cells were confirmed.
(§1) 1) 5×10^4 cells/well of NHEK cells (Invitrogen) were plated on a 24-well plate. Then, 500 μl of a culture medium containing a medium for proliferating normal human epidermal keratinocytes (HuMedia-KG2, KURABO INDUSTRIES LTD.) supplemented with hEGF (0.1 ng/ml), insulin (10 μg/ml), hydrocortisone (0.5 μg/ml), gentamycin (50 μg/ml), amphotericin B (50 ng/ml), and bovine brain pituitary extract (BPE) (0.4%, v/v) were added to the plate, and the cells were cultured under the conditions of 37° C. and 5% CO2.
2) After culture under the conditions of the step 1) for 1 day, the medium was exchanged for the culture medium of the step 1) to which a DMSO solution of Compound 1 was added at 1 μM per well every day and the culture was conducted for 3 days. […]
3) An extraction reagent (TRIzol™, Invitrogen) was used, and according to the manufacturer's protocol, total RNA was extracted from each of cells treated with the medicament. […] Next, real-time PCR was conducted by using the following primers and SYBR™ Premix Ex Taq (Takara) with a CFX96 real-time PCR instrument according to the manufacturer's protocol, and the amounts of GPR142mRNA and GPR22mRNA expression were measured. […]
On the technique in general: Quantitative PCR measures a nucleic acid by following its amplification.

Another test has as its system GPR22. Put plainly: Blocking effect by GPR22 RNAi in NHEK cells (Reference Example 1). It counts as cell-based, human. As to conditions: calcium priming, siRNA 10 nM, Compound 1 10 nM, 1 day. The method, then: as §1
2) 1 day after the step 1), the medium was exchanged for the medium supplemented with calcium every day, and culture was conducted for 2 days (priming).
3) The NHEK cells of the step 2) were transfected with 10 nM of siRNA per well of the 24-well plate by using a transfection reagent, Lipofectamine RNA Max (Invitrogen) according to the manufacturer's protocol.
4) After culture for 1 day after the step 3), the medium was exchanged for a medium to which Compound 1 dissolved in DMSO was added at 10 nM per well on the 24-well plate, and culture was conducted for 1 day. As a control example, a solvent only (vehicle) was added.
5) An extraction reagent (TRIzol™, Invitrogen) was used, and according to the manufacturer's protocol, total RNA was extracted from each of cells treated with the medicament. A reverse transcriptase reagent (Prime Script™, Takara) was used, and according to the manufacturer's protocol, cDNA was prepared from the total RNA. Real-time PCR was conducted by using SYBR™ Premix Ex Taq (Takara) with a CFX96 real-time PCR instrument according to the manufacturer's protocol, and the amounts of GPR22 mRNA and FLG mRNA were measured. The results of measurement are shown as a GAPDH ratio.

The next test concerns FLG protein. Put plainly: FLG protein in cultured human normal skin, immunohistostaining (Example 12). It counts as cell-based. As to conditions: 1 μM, 4 days. An excerpt: In this example, the expression-increasing effect of Compound 1 (N-quinolylbenzamide derivative) on FLG monomer was examined by using human normal skin. The expression of the FLG monomer was confirmed by an immunohistostaining method using an anti-human FLG antibody. The medium used was a medium for proliferating normal human epidermal keratinocytes (HuMedia-KG2, KURABO INDUSTRIES LTD.). It should be noted that, in this example, surplus portions of normal skin derived from extirpation of portions of a skin disease were used under the agreement by the donor through Ethics Committee of Kyoto University.
1) Human normal skin (with a size of 5×5×5 mm) was put on a transwell of a 24-well transwell plate, 500 μl of the medium, to which Compound 1 (1 μM) or a control (vehicle (DMSO)) was added, were added to the lower part, and the skin was cultured. After culture for 2 days, the medium was exchanged for the same medium.
2) After 4 days, the cultured skin was collected, and was soaked in 10% formalin overnight, and thereafter, a paraffin section having a thickness of […] was prepared according to a conventional method. […]

The next test has as its system FLG monomer. Put plainly: FLG monomer-producing effect in atopic dermatitis mouse model (NC/Nga), Western blotting (Example 15). It is filed as in vivo. The following applies: oral 0.75 mg every other day, 2 weeks, ear epidermis. The method, then: Experiments were conducted with raising 6- to 10-week-old atopic dermatitis-developing NC/Nga mice with mites (Japan SLC, Inc.) under a normal environment. Namely, 500 μl of a solution obtained by dissolving Compound 1 at 1.5 mg/ml in a methyl cellulose solution (0.5 W/V % Methyl Cellulose 400 Solution, Wako, 133-14255) were orally administered to an NC/Nga mouse developing dermatitis majorly in the ear auricles and the head (0.75 mg of Compound 1 was administered to the mouse per time) every other day. As a control, 500 μl of the methyl cellulose solution was orally administered every other day. The experiments were conducted by using five mice in each of a Compound 1-administered group and a control group.
2 weeks after the beginning of administration, ears of each mouse were cut under anesthesia, the skin of the cut ear was peeled off by pinching cartilage, and the skin on the dermal side was soaked in PBS containing 20 mM EDTA at 37° C. for 30 minutes. Next, the epidermis of the ear was peeled off and […] of Lysis buffer (0.1 M Tris-HCl (pH 9.0), 6 M Urea, 1% 2-mercapto-ethanol, 1% SDS, 1 mM EDTA, and Protease inhibitor cocktail) were added to the epidermis. The epidermis was homogenized with an electrically powered pestle, and the homogenized cells were centrifuged at 15,000 rpm at 4° C. for 20 minutes. […]
In general terms: In western blotting, separated proteins are transferred to a membrane and probed.

Results on one compound are retold here after US20150190416A1, “FILAGGRIN PRODUCTION PROMOTER, THERAPEUTIC AGENT FOR DISEASES ASSOCIATED WITH REDUCTION IN PRODUCTION OF FILAGGRIN, AND METHOD FOR SCREENING FOR SAID THERAPEUTIC AGENT” (KYOTO UNIVERSITY, priority 2012, published 2015).

Turning to `CCc1ccc(OCc2ccccc2C(=O)Nc2ccc3nc(C)cc(N)c3c2)cc1.Cl` [Compound 1, N-(4-Amino-2-methyl-6-quinolyl)-2-[(4-ethylphenoxy)methyl]benzamide hydrochloride], the “GPR22 mRNA expression (GAPDH ratio)” value in the test on GPR22 mRNA is “induced GPR22 mRNA expression”. Further, in the test with GPR22, the “FLG mRNA expression in the presence of GPR22 siRNA” value is recorded as “not suppressed” and the “GPR22 mRNA expression in the presence of GPR22 siRNA” value is “suppressed by GPR22 siRNA”. Further, in the test on FLG protein, the “development of the stratum corneum” value is on record as “greater than that of the control”. Further, the “FLG protein within the skin” value in the test on FLG protein (immunohistostaining) is “markedly increased”. Besides, the “production of FLG monomer (relative to GAPDH)” value in the test with FLG monomer was “clearly promoted the production of FLG monomer”.
